Reference: patent publication US7205304B2, “Sulfonyl-Derivatives as novel inhibitors of histone deacetylase” (Janssen Pharmaceutica N.V., priority 2002, dated 2007)
Values after ≈ are worked out from the molar mass of the structure shown.

Key:
[1] = target: histone deacetylase (HeLa nuclear extracts); assay: In vitro assay for inhibition of histone deacetylase; type: biochemical; conditions: [3H]acetylated histone H4 peptide substrate
Procedure: The in vitro assay for inhibition of histone deacetylase (see example C.1) measures the inhibition of HDAC enzymatic activity obtained with the compounds of formula (I).
HeLa nuclear extracts (supplier: Biomol) were incubated at 60 μg/ml with 2×10^−8 M of radiolabeled peptide substrate. As a substrate for measuring HDAC activity a synthetic peptide, i.e. the amino acids 14–21 of histone H4, was used. The substrate is biotinylated at the NH2-terminal part with a 6-aminohexanoic acid spacer, and is protected at the COOH-terminal part by an amide group and specifically [^3H]acetylated at lysine 16. The substrate, biotin-(6-aminohexanoic)Gly-Ala-([^3H]-acetyl-Lys-Arg-His-Arg-Lys-Val-NH2), was added in a buffer containing 25 mM Hepes, 1 M sucrose, 0.1 mg/ml BSA and 0.01% Triton X-100 at pH 7.4. After 30 min the deacetylation reaction was terminated by the addition of HCl and acetic acid. (final concentration 0.035 mM and 3.8 mM respectively). After stopping the reaction, the free ^3H-acetate was extracted with ethylacetate. After mixing and centrifugation, the radioactivity in an aliquot of the upper (organic) phase was counted in a β-counter.
For each experiment, controls (containing HeLa nuclear extract and DMSO without compound), a blank incubation (containing DMSO but no HeLa nuclear extract or compound) and samples (containing compound dissolved in DMSO and HeLa nuclear extract) were run in parallel. In first instance, compounds were tested at a concentration of 10^−5M. […] In each test the blank value was substracted from both the control and the sample values. The control sample represented 100% of substrate deactylation. For each sample the radioactivity was expressed as a percentage of the mean value of the controls. […] Herein the effects of test compounds are expressed as pIC50 (the negative log value of the IC50-value).

[2] = Kinetic solubility in aqueous media (nephelometry); type: physicochemical; conditions: phosphate citrate buffer, pH 7.4, aqueous buffer, kinetic from dmso stock, phosphate citrate buffer pH 7.4, turbidity of three dilution steps; read-out: Solubility Score
Procedure: Kinetic solubility in aqueous media measures the ability of a compound to stay in aqueous solution upon dilution (see example C.3).
DMSO-stock solutions are diluted with a single aqueous buffer solvent in 3 consecutive steps. For every dilution turbidity is measured with a nephelometer.
In the first dilution step, 10 μl of a concentrated stock-solution of the active compound, solubilized in DMSO (5 mM), was added to 100 μl phosphate citrate buffer pH 7.4 and mixed. In the second dilution step, an aliquot (20 μl) of the first dilution step was further dispensed in 100 μl phosphate citrate buffer pH 7.4 and mixed. Finally, in the third dilution step, a sample (20 μl) of the second dilution step was further diluted in 100 μl phosphate citrate buffer pH 7.4 and mixed. All dilutions were performed in 96-well plates. Immediately after the last dilution step the turbidity of the three consecutive dilution steps were measured with a nephelometer. Dilution was done in triplicate for each compound to exclude occasional errors. Based on the turbidity measurements a ranking is performed into 3 classes. Compounds with high solubility obtained a score of 3 and for this compounds the first dilution is clear. Compounds with medium solubility obtained a score of 2. For these compounds the first dilution is unclear and the second dilution is clear. […] The solubility of 112 compounds was measured.

[3] = system: A2780 ovarian carcinoma cells; assay: Antiproliferative activity on A2780 cells (MTT); type: cell-based, human; conditions: Homo sapiens, A2780, 96 h, four days of incubation, read-out: Cellular activity pIC50 (converted)
Procedure: Cellular activity of the compounds of formula (I) was determined on A2780 tumour cells using a colorimetric assay for cell toxicity or survival (Mosmann Tim, Journal of Immunological Methods 65: 55–63, 1983)(see example C.2).
All compounds tested were dissolved in DMSO and further dilutions were made in culture medium. Final DMSO concentrations never exceeded 0.1% (v/v) in cell proliferation assays. Controls contained A2780 cells and DMSO without compound and blanks contained DMSO but no cells. MTT was dissolved at 5 mg/ml in PBS. A glycine buffer comprised of 0.1 M glycine and 0.1 M NaCl buffered to pH 10.5 with NaOH (1 N) was prepared (all reagents were from Merck).
The human A2780 ovarian carcinoma cells (a kind gift from Dr. T. C. Hamilton [Fox Chase Cancer Centre, Pennsylvania, USA]) were cultured in RPMI 1640 medium supplemented with 2 mM L-glutamine, 50 μg/ml gentamicin and 10% fetal calf serum. Cells were routinely kept as monolayer cultures at 37° C. in a humidified 5% CO2 atmosphere. Cells were passaged once a week using a trypsin/EDTA solution at a split ratio of 1:40. All media and supplements were obtained from Life Technologies. Cells were free of mycoplasma contamination as determined using the Gen-Probe Mycoplasma Tissue Culture kit (supplier: BioMérieux).
Cells were seeded in NUNC™ 96-well culture plates (Supplier: Life Technologies) and allowed to adhere to the plastic overnight. Densities used for plating were 1500 cells per well in a total volume of 200 μl medium. After cell adhesion to the plates, medium was changed and drugs and/or solvents were added to a final volume of 200 μl. Following four days of incubation, medium was replaced by 200 μl fresh medium and cell density and viability was assessed using an MTT-based assay. To each well, 25 μl MTT solution was added and the cells were further incubated for 2 hours at 37° C. The medium was then carefully aspirated and the blue MTT-formazan product was solubilized by addition of 25 μl glycine buffer followed by 100 μl of DMSO. […] Within an experiment, the results for each experimental condition are the mean of 3 replicate wells. For initial screening purposes, compounds were tested at a single fixed concentration of 10^−6 M. For active compounds, the experiments were repeated to establish full concentration-response curves. For each experiment, controls (containing no drug) and a blank incubation (containing no cells or drugs) were run in parallel. The blank value was subtracted from all control and sample values. For each sample, the mean value for cell growth (in absorbance units) was expressed as a percentage of the mean value for cell growth of the control. […] Herein the effects of test compounds are expressed as pIC50 (the negative log value of the IC50-value).

Row | Enzyme activity pIC50 [1] | solubility [2] | IC50 [3] | Compound
1 | 6.255 | 75.8 to 454 µM (≈ 28.8 to 172 µg/mL) | 2790 nM | O=C(NO)c1ccc(N2CCN(S(=O)(=O)c3cccc(F)c3)CC2)cc1 [Compound 61]
2 | 5.409 | < 75.8 µM | 384 nM | O=C(NO)c1ccc(N2CCN(S(=O)(=O)CCc3cccc4ccccc34)CC2)cc1 [Compound 62]
3 | 6.215 | < 75.8 µM | 1860 nM | CCCc1ccc(S(=O)(=O)N2CCN(c3ccc(C(=O)NO)cc3)CC2)cc1 [Compound 63]
4 | 5.753 | > 454 µM | 8910 nM | Cc1noc(C)c1S(=O)(=O)N1CCN(c2ccc(C(=O)NO)cc2)CC1 [Compound 64]
5 | 5.775 | > 454 µM | > 10000 nM | Cn1cnc(S(=O)(=O)N2CCN(c3ccc(C(=O)NO)cc3)CC2)c1 [Compound 65]
6 | 6.197 | < 75.8 µM | 1330 nM | O=C(NO)c1ccc(N2CCN(S(=O)(=O)c3ccc(Cl)s3)CC2)cc1 [Compound 66]
7 | 5.177 | < 75.8 µM | 855 nM | Cc1c(C)c(S(=O)(=O)N2CCN(c3ccc(C(=O)NO)cc3)CC2)c(C)c2c1OC(C)(C)C2 [Compound 67]
8 | 6.908 | < 75.8 µM | 1230 nM | O=C(NO)c1ccc(N2CCN(S(=O)(=O)c3ccc(-c4ccccn4)s3)CC2)cc1 [Compound 68]
9 | 5.978 | > 454 µM | > 10000 nM | O=C(NO)c1ccc(N2CCN(S(=O)(=O)c3cc(S(=O)(=O)c4ccccc4)cs3)CC2)cc1 [Compound 69]
10 | 5.914 | > 454 µM | 4060 nM | O=C(NO)c1ccc(N2CCN(S(=O)(=O)c3cccs3)CC2)cc1 [Compound 70]
11 | 6.449 | > 454 µM | 2470 nM | O=C(NO)c1ccc(N2CCN(S(=O)(=O)c3cccc4cccnc34)CC2)cc1 [Compound 71]
12 | 6.346 | < 75.8 µM | 942 nM | CN(C)c1cccc2c(S(=O)(=O)N3CCN(c4ccc(C(=O)NO)cc4)CC3)cccc12 [Compound 72]
13 | 6.212 | < 75.8 µM | 3960 nM | O=C(NO)c1ccc(N2CCN(S(=O)(=O)Cc3ccccc3)CC2)cc1 [Compound 73]
14 | 5.841 | 75.8 to 454 µM (≈ 32.6 to 195 µg/mL) | 2610 nM | O=C(NO)c1ccc(N2CCN(S(=O)(=O)c3ccccc3C(F)(F)F)CC2)cc1 [Compound 74]
15 | 6.227 | < 75.8 µM | 1360 nM | O=C(NO)c1ccc(N2CCN(S(=O)(=O)c3ccc(Cl)cc3)CC2)cc1 [Compound 76]
16 | 6.306 | 75.8 to 454 µM (≈ 33.4 to 200 µg/mL) | 1250 nM | O=C(NO)c1ccc(N2CCN(S(=O)(=O)c3ccc(Br)cc3)CC2)cc1 [Compound 78]

Row | Enzyme activity pIC50 [1] | solubility [2] | IC50 [3] | Compound
17 | 6.238 | < 75.8 µM | 4290 nM | Cc1ccc(S(=O)(=O)N2CCN(c3ccc(C(=O)NO)cc3)CC2)cc1 [Compound 79]
18 | 5.961 | < 75.8 µM | 1230 nM | O=C(NO)c1ccc(N2CCN(S(=O)(=O)c3ccc(Cl)c(Cl)c3)CC2)cc1 [Compound 80]
19 | 6.873 | < 75.8 µM | 1300 nM | O=C(NO)c1ccc(N2CCN(S(=O)(=O)c3cccc4ccccc34)CC2)cc1 [Compound 81]
20 | 5.821 | > 454 µM | 1080 nM | O=C(NO)c1ccc(N2CCN(S(=O)(=O)c3ccc(Oc4ccccc4)cc3)CC2)cc1 [Compound 82]
21 | 6.157 | < 75.8 µM | 1300 nM | O=C(NO)c1ccc(N2CCN(S(=O)(=O)c3cccc(-c4ccccc4)c3)CC2)cc1 [Compound 83]
22 | 6.481 | > 454 µM | 2840 nM | O=C(NO)c1ccc(CN2CCN(S(=O)(=O)c3ccc4ccccc4c3)CC2)cc1 [Compound 88]
23 | 7.467 | > 454 µM | 1110 nM | O=C(NO)c1cnc(N2CCN(S(=O)(=O)c3cccs3)CC2)nc1 [Compound 90]
24 | 7.688 | > 454 µM | 783 nM | O=C(NO)c1cnc(N2CCN(S(=O)(=O)c3ccc4cccnc4c3)CC2)nc1 [Compound 91]
25 | 7.464 | > 454 µM | 455 nM | Cn1nc(-c2ccc(S(=O)(=O)N3CCN(c4ncc(C(=O)NO)cn4)CC3)s2)cc1C(F)(F)F [Compound 93]
26 | 7.497 | 75.8 to 454 µM (≈ 39.2 to 235 µg/mL) | 218 nM | Cn1nc(C(F)(F)F)cc1-c1ccc(S(=O)(=O)N2CCN(c3ncc(C(=O)NO)cn3)CC2)s1 [Compound 94]
27 | 7.363 | > 454 µM | 1100 nM | O=C(NO)c1cnc(N2CCN(S(=O)(=O)c3c(Cl)nc4sccn34)CC2)nc1 [Compound 95]
28 | 7.49 | > 454 µM | 335 nM | COc1ccc(S(=O)(=O)N2CCN(c3ncc(C(=O)NO)cn3)CC2)cc1OC [Compound 96]
29 | 7.054 | 75.8 to 454 µM (≈ 39.7 to 238 µg/mL) | 356 nM | O=C(NO)c1cnc(N2CCN(S(=O)(=O)c3ccc(-c4ccc(OC(F)(F)F)cc4)cc3)CC2)nc1 [Compound 98]
30 | 7.316 | > 454 µM | 242 nM | COc1ccc(-c2ccc(S(=O)(=O)N3CCN(c4ncc(C(=O)NO)cn4)CC3)cc2)c(OC)c1 [Compound 99]
31 | 8.171 | 75.8 to 454 µM (≈ 32.6 to 195 µg/mL) | 57.9 nM | O=C(NO)c1cnc(N2CCN(S(=O)(=O)c3ccc(-c4ccoc4)cc3)CC2)nc1 [Compound 100]
32 | 7.162 | 75.8 to 454 µM (≈ 38.5 to 231 µg/mL) | 353 nM | O=C(NO)c1cnc(N2CCN(S(=O)(=O)c3ccc(-c4cccc(C(F)(F)F)c4)cc3)CC2)nc1 [Compound 102]
